Where two headings read alike, the source gives them in different places.
How the values were obtained:
[1] = test system: UPEC strain CFT073; experiment: In vivo ascending UTI assay (prophylaxis); parameters: species or system Escherichia coli in C3H/HeN mice; details: gentamicin 10 mg/kg IP 30 min prior to inoculation
Protocol: Female mice were injected subcutaneously in the flank with 2.5 mg of MPA (150 mg/mL, diluted in sterile saline) 7 days prior to inoculation ([60]). Mice were dosed vaginally with 30 µL of sterile saline lavage fluid immediately prior to inoculation. The fluid was collected, placed on a slide, heat fixed, Gram stained, and assessed to determine the estrous cycle stage of each mouse as previously described ([61]).
Six-week-old female C3H/HeN mice were inoculated with UPEC as previously described ([28]). Briefly, UPEC strain CFT073 (ATCC designation: BAA-2503) was streaked on LB agar from a frozen glycerol stock and grown overnight at 37°C. Following overnight incubation, three to five colonies were picked and subcultured into 10 mL of sterile LB, and the culture was incubated statically overnight at 37°C. The culture was diluted 1:1,000 (25 µL of culture into 25 mL of sterile LB) and incubated statically for 24 h at 37°C to promote the growth of bacteria with type-1 pili expression. The resulting 25 mL inoculum was centrifuged at 4,200 × g for 20 min at 4°C. The supernatant was removed, and the cell pellet was resuspended in 10 mL of sterile PBS. The OD600 was adjusted to 1.0 by the addition of PBS to give a cell density of approximately 4 × 10^7 to 1 × 10^8 CFUs per 50 µL, the volume of the inoculum. Cell counts were validated by plating a dilution of the inoculum solution and enumerating following overnight incubation.
Urinary catheters were assembled by threading 30G needles with 0.28 mm inner diameter polyethylene tubing to create a soft tip. Catheter tips were dipped in lubricant immediately before inoculation. During catheterization, urine was aspirated from the bladder prior to inoculation with 50 µL of UPEC inoculum, prepared as described above. Mice were housed with their drug-dosed cohort and dosed intraperitoneally according to each experiment’s dosing regimen as shown in the figures. Dosing regimen for BAP trial 1 (Fig. 7b)consisted of IP administration of BAP (300 mg/kg) 30 min before inoculation; dosing regimen for BAP trial 2 (Fig. 7c) consisted of IP administration of BAP (600 mg/kg) 30 min before inoculation followed with IP doses of BAP (300 mg/kg) at 1 and 3 hpi; dosing regimen for BAP trial 3 and the pro-hpAP trial (Fig. 7d) consisted of IP administration of BAP (600 mg/kg) or pro-hpAP (60 mg/kg) 30 min before inoculation followed with IP doses of BAP (300 mg/kg) or pro-hpAP (30 mg/kg) at 1, 3, and 24 hpi; dosing regimen 4 (Fig. S3) consisted of IP administration of BAP (600 mg/kg) 30 min before inoculation followed with IP doses of BAP (300 mg/kg) at 1, 3, 6, 10, 22, 26, and 30 hpi. Gentamicin diluted in sterile PBS was used as a positive control and was administered to mice at 10 mg/kg IP 30 min prior to inoculation in all experiments.
After 48 h, mice were anesthetized by isoflurane inhalation and sacrificed by cervical dislocation. Bladders were harvested, added to 1 mL sterile PBS, and homogenized with a hand-held homogenizer in a biosafety cabinet. Tissue homogenates were serially-diluted (five 10-fold dilutions), and 100 µL of each dilution was plated onto LB plates and enumerated after a 24 h incubation at 37°C, yielding an effective detection range of 1 × 10^2–150 × 10^8 CFU/mL. In a few cases, bacterial counts fell below the lower limit of detection or above the upper limit of detection and are reported as 0 CFU/mL or conservatively 200 × 10^8 CFU/mL, respectively.

[2] = In vivo PK studies in CD-1 mice; details: for AUC: pro-hpAP 30 mg/kg IP; for Cmax / AUC(0-t): ip, 30 mg/kg; for AUC(0-t): read-out: AUC0-t
Protocol: For pharmacokinetic analysis, both male (n = 2) and female (n = 2) CD1 mice were dosed with either BAP or pro-hpAP by intraperitoneal (IP) route or administration (100 mg/kg) and (30 mg/kg), respectively. Blood and tissue samples were collected at predetermined time points (0–6 h post-dose). Plasma was generated from blood by low-speed centrifugation (3,000 × g), and all samples were stored at −80°C until bioanalysis.
Non-compartmental-analysis module in WinNonlin was used to assess blood pharmacokinetic parameters including max concentrations (Cmax), time to Cmax (Tmax), area under the curve (AUC), area extrapolated to infinity (AUC0–∞), and terminal half-life (t1/2). In addition, the tissue penetration index was measured as the ratio of AUCtissue to AUCplasma.
To quantify BAP and pro-hpAP, methanol containing 0.5 µM losartan as an internal standard was added 5 µL/µL plasma or 5 µL/mg tissue in microcentrifuge tubes. Tissue was further homogenized using a Spex Geno/Grinder with stainless steel beads for 3 min at 1,500 RPM. Homogenates from untreated animals were spiked with the analytes from 100 to 0.01 nmol/g tissue by serial dilution to generate a standard curve. Plasma and tissue homogenates were then vortexed and centrifuged (16,000 × g for 5 min at 4°C) to precipitate proteins. Supernatants were transferred to a 96 well plate and 2 µL was injected on a Accela 1250 LC coupled to a Vantage triple quadrupole mass spectrometer (Thermo Fisher Scientific Inc., Waltham MA). Samples were separated on an Agilent EclipsePlus C18 RRHD (1.8 µm) 2.1 × 100 mm column with mobile phases consisting of water +0.1% formic acid (A), and acetonitrile + 0.1% formic acid (B). […] Samples were introduced to the source through heated ion spray with the capillary temperature setting at 350°C, spray voltage of 4 kV and S-Lens RF of 51. Nitrogen was used as the sheath and auxiliary gas with the settings of 50 and 1 arbitrary units, respectively. For BAP, the instrument was operated in negative ion mode scanning for transitions of 179.1 > 63.1, 79.1 (BAP) and 420.9 > 179.1, 127.0 (losartan) which were acquired with collision energies setting of 17; 55 and 25; 41 CE, respectively. For pro-hpAP, the instrument was operated in positive ion mode scanning for transitions of 346.2 to 86.1 and 143.2 (pro-hpAP) and 422.9 to 207.1 and 180.1 (losartan) which were acquired with collision energies setting of 29; 17 and 37; 22 CE, respectively. Peaks were quantified with Xcalibur software.

[3] = both sexes, CD1, mouse, in vivo, Bladder, single 30 mg/kg IP dose of pro-hpAP, analyte = labelled substance
[4] = both sexes, CD1, mouse, in vivo, Brain, single 30 mg/kg IP dose of pro-hpAP, analyte = labelled substance
[5] = both sexes, CD1, mouse, in vivo, Kidney, single 30 mg/kg IP dose of pro-hpAP, analyte = labelled substance

SMILES: CNC(C)C1CCC(N)C(OC2C(N)CC(N)C(OC3OCC(C)(O)C(NC)C3O)C2O)O1 (centres unmarked) [gentamicin, reference compound]
- mice with bacterial burden below the limit of detection (LOD) [1]: 5 of 8

SMILES: C#CCCOP(=O)(O)C(C)=O [hpAP, homopropargyl acetylphosphonate]
- AUC ([2]; bladder, analyte = labelled substance (pro-hpAP or released hpAP)): 366 ± 31 nmol·h/g
- Cmax [2, 3]: 586 ± 78 µM
- AUC(0-t) [2, 3]: 366 ± 31 µM·h
- Cmax [2, 4]: 2.18 ± 0.16 µM
- AUC(0-t) [2, 4]: 1.87 ± 0.21 µM·h
- Cmax [2, 5]: 50.2 ± 7.7 µM
- AUC(0-t) [2, 5]: 16.3 ± 1.4 µM·h
- Cmax ([2]; both sexes, CD1, mouse, in vivo, Plasma, single 30 mg/kg IP dose of pro-hpAP, analyte = labelled substance (pro-hpAP or released hpAP)): 110 ± 11 µM
- AUC(0-t) ([2]; both sexes, CD1, mouse, in vivo, Plasma, single 30 mg/kg IP dose of pro-hpAP, analyte = labelled substance): 38.8 ± 2.7 µM·h
- Tmax ([2]; both sexes, CD1, mouse, in vivo, Kidney, single 30 mg/kg IP dose of pro-hpAP, analyte = labelled substance, read-out: Tmax): 15 min
- AUC ([2]; both sexes, CD1, mouse, in vivo, plasma, analyte = labelled substance, read-out: AUC): 38.8 ± 2.7 µM·h
- AUC ([2]; brain, analyte = labelled substance): 1.87 ± 0.21 nmol·h/g
- AUC ([2]; kidney, analyte = labelled substance): 16.3 ± 1.4 nmol·h/g

Reference: PMC10986598, “Investigating inhibitors of 1-deoxy-D-xylulose 5-phosphate synthase in a mouse model of UTI” (Microbiology Spectrum, 2024)
